Patent publication US8524716B2, “Macrocyclic indoles as hepatitis C virus inhibitors” (priority 2007, dated 2013)
Like-named read-outs stand apart in the source and are kept apart here.

Legend:
[1] = from C=CCCNC(=O)Cn1c(-c2ccoc2)c(C2CCCCC2)c2ccc(C(=O)NCCC=C)cc21; rcm bond; Hoveyda-Grubbs 1st generation catalyst; 1,2-dichloroethane; 1.585 mM; 80.0 °C; 15.0 h
[2] = target: HCV NS5B (Hepatitis C virus genotype 1b (strain HC-J4), UniProt O92972); assay: biochemical; assay type: biochemical; conditions: 100 nM enzyme, [3H]GTP incorporation, 2 h at 25° C.; read-out: IC50 (μM) Enzymatic assay
Chain of HCV NS5B (O92972 2420-3010 limits assumed): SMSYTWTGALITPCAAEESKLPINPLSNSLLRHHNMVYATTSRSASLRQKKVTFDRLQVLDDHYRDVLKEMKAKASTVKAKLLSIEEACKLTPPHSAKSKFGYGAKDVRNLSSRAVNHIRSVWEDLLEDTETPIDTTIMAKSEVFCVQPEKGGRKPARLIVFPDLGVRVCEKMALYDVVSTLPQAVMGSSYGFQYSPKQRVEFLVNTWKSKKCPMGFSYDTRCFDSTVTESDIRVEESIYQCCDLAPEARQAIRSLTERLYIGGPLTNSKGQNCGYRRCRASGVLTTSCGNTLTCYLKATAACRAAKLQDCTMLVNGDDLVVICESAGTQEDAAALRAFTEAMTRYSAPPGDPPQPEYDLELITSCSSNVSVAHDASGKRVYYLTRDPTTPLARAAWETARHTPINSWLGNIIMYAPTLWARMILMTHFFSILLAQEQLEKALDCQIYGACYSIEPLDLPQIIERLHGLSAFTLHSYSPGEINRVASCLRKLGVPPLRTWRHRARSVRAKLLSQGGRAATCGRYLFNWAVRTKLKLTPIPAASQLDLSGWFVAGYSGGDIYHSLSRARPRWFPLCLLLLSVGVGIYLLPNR
Method: The cDNA encoding NS5B amino acid 1-570 (HC-J4, genotype 1b, pCV-J4L6S, genebank accession number AF054247) was subcloned into the Nhe I and Xho I restriction sites of pET-21b. Expression of the subsequent His-tagged C-terminal 21 amino acid deleted NS5B was performed as follows:
The NS5B expression construct was transformed into E. coli BL21(DE3) (Novagen, Madison, Wis.). Five milliliters of LB-medium supplemented with ampicillin (50 μg/mL) was inoculated with one colony. When the pre-culture reached an optical density of 0.6 measured at 600 nm, it was transferred to fresh LB-medium supplemented with ampicillin, at a ratio of 1:200. Cells were grown to an optical density at 600 nm of 0.6, after which the expression cultures were shifted to a growth temperature of 20° C. following induction with isopropyl-1-thio-β-D-galactopyranoside and MgCl2 at a final concentration of 0.4 mM and 10 μM, respectively. After ten hours of induction, cells were harvested by centrifugation and resuspended in 20 mM Tris-HCl, pH 7.5, 300 mM NaCl, 10% glycerol, 0.1% NP40, 4 mM MgCl2, 5 mM DTT supplemented with EDTA-free Complete Protease Inhibitor (Roche, Basel, Switzerland). Cell suspensions were disrupted by sonication and incubated with 10-15 mg/L of DNase I (Roche, Basel, Switzerland) for 30 minutes. Cell debris was removed through ultracentrifugation at 30,000×g for 1 hour and clarified cell lysate was flash frozen and stored at −80° C. prior to purification.
Clarified cell lysate was thawed and subsequently loaded onto a 5 mL pre-packed HisTrap FF column equilibrated with 25 mM HEPES, pH 7.5, 500 mM NaCl, 10% glycerol and 5 mM DTT. Proteins were eluted with 500 mM imidazole at a flow rate of 1 mL/min. Fractions containing the protein of interest were applied onto a pre-packed 26/10 HiPrep Desalting Column equilibrated with 25 mM HEPES, pH 7.5, 150 mM NaCl, 10% glycerol and 5 mM DTT. The buffer-exchanged NS5B peak was then applied onto a 20 mL Poly-U Sepharose column. Protein was eluted with an increasing salt gradient and fractions collected. Protein purity was assessed on Nu-PAGE pre-cast gels (Invitrogen, Carlsbad, Calif.). Purified NS5B samples were concentrated using Centri-Prep concentrators (Millipore, Billerica, Mass., USA) and protein concentrations were determined by Bradford assay (Pierce, Rockford, Ill., USA).
Measurement of HCV NS5B polymerization activity was performed by evaluating the amount of radio labeled GTP incorporated by the enzyme in a newly synthesized RNA using heteropolymeric RNA template/primer. The high-throughput RNA dependent RNA polymerase (RdRp) assay was carried out in 384-well plates using 100 nM enzyme, 300 nM 5′-biotinylated oligo(rG13)/poly(rC) primer-template, 600 nM of GTP, and 0.1 μCi of [^3H]GTP in 25 mM Tris-HCl, pH 7.5, 5 mM MgCl2, 25 mM KCl, 17 mM NaCl and 3 mM of dithiothreitol (DTT). Test compounds were dissolved in DMSO. The test compounds were added to the preformed polymerase-template complex, and incubated at room temperature for 15 min before the addition of nucleoside triphosphates (NTP). The 30 μl reaction was terminated after 2 h at 25° C. upon addition of 30 μl A PVT-SPA beads (Amersham Biosciences RPNQ0009, 5 mg/ml in 0.5 M EDTA).

[3] = test system: HCV replicons (NS3-NS5B regions of HCV type 1b) in Huh-Luc cells; assay: HCV replicon assay in Huh-7 luc/neo (Huh-Luc) cells, luciferase readout; assay type: cell-based; conditions: Hepatitis C virus, Huh-7, 72 h, three days incubation, luciferase activity
Excerpt: The compounds of formula (I) were examined for activity in the inhibition of HCV RNA replication in a cellular assay. […] The cellular assay was based on a bicistronic expression construct, as described by Lohmann et al. (1999) Science vol. 285 pp. 110-113 with modifications described by Krieger et al. (2001) Journal of Virology 75: 4614-4624, in a multi-target screening strategy. In essence, the method was as follows.
The assay utilized the stably transfected cell line Huh-7 luc/neo (hereafter referred to as Huh-Luc). This cell line harbors an RNA encoding a bicistronic expression construct comprising the wild type NS3-NS5B regions of HCV type 1b translated from an Internal Ribosome Entry Site (IRES) from encephalomyocarditis virus (EMCV), preceded by a reporter portion (firefly luciferase), and a selectable marker portion (neo^R, neomycine phosphotransferase). The construct is bordered by 5′ and 3′ NTRs (non-translated regions) from HCV type 1b. Continued culture of the replicon cells in the presence of G418 (neo^R) is dependent on the replication of the HCV RNA. The stably transfected replicon cells that express HCV RNA, which replicates autonomously and to high levels, encoding inter alia luciferase, were used for screening the antiviral compounds.
The replicon cells were plated in 384 well plates in the presence of the test and control compounds which were added in various concentrations. Following an incubation of three days, HCV replication was measured by assaying luciferase activity (using standard luciferase assay substrates and reagents and a Perkin Elmer ViewLux™ ultraHTS microplate imager). […] The inhibitory activity of the compound on luciferase activity was monitored on the Huh-Luc cells, enabling a dose-response curve for each test compound. EC50 values were then calculated, which value represents the amount of the compound required to decrease the level of detected luciferase activity by 50%, or more specifically, the ability of the genetically linked HCV replicon RNA to replicate.

| SMILES | IC50 [2] | EC50 [3] | also measured |
| --- | --- | --- | --- |
| CS(=O)(=O)N1CCN(c2ccc([N+](=O)[O-])cc2COc2ccc(-c3c(C4CCCCC4)c4ccc5cc4n3CC(=O)NCCC=CCCNC5=O)cc2)CC1 | – | – | ring closure, isolated yield (rcm bond, 15-membered ring, Hoveyda-Grubbs 1st gen (2 portions), DCE, 80.0 °C): 70% |
| O=C1Cn2c(-c3ccc(OCc4cc(N5CCCC5=O)ccc4N4CCOCC4)cc3)c(C3CCCCC3)c3ccc(cc32)C(=O)NCCC=CCCN1 | – | – | ring closure, isolated yield (from C=CCCNC(=O)Cn1c(-c2ccc(OCc3cc(N4CCCC4=O)ccc3N3CCOCC3)cc2)c(C2CCCCC2)c2ccc(C(=O)NCCC=C)cc21, rcm bond, 15-membered ring, Hoveyda-Grubbs 1st gen (2 portions), DCE, 80.0 °C): 25% |
| O=C1Cn2c(-c3ccoc3)c(C3CCCCC3)c3ccc(cc32)C(=O)NCCC=CCCN1 | – | – | ring closure, yield of all isomers [1]: 22% |
| CS(=O)(=O)N1CCN(c2ccc(N3CCCC3=O)cc2COc2ccc(-c3c(C4CCCCC4)c4ccc5cc4n3CC(=O)NCC/C=C\CCNC5=O)c(F)c2)CC1 [Cpd 15, 17-Cyclohexyl-18-[2-fluoro-4-[2-(4-methanesulfonyl-piperazin-1-yl)-5-(2-oxo-pyrrolidin-1-yl)-benzyloxy]-phenyl]-1,4,11-triaza-tricyclo[11.5.2.0^16,19]icosa-7,13(20),14,16(19),17-pentaene-3,12-dione] | 1.58 µM | 0.27 µM | – |
| COc1ccc(-c2ccc(Cl)cc2)c(-c2ccc3cc(-c4c(C5CCCCC5)c5ccc6cc5n4CC(=O)NCC/C=C\CCNC6=O)ccc3n2)c1 [Cpd 16, 18-[2-(4′-Chloro-4-methoxy-biphenyl-2-yl)-quinolin-6-yl]-17-cyclohexyl-1,4,11-triaza-tricyclo[11.5.2.0^16,19]icosa-7,13(20),14,16(19),17-pentaene-3,12-dione] | 1.44 µM | 17.6 µM | – |
| Cc1nc(C)c(-c2ccc3cc(-c4c(C5CCCCC5)c5ccc6cc5n4CC(=O)NCC/C=C\CCNC6=O)ccc3n2)s1 [Cpd 17, 17-Cyclohexyl-18-[2-(2,4-dimethyl-thiazol-5-yl)-quinolin-6-yl]-1,4,11-triaza-tricyclo[11.5.2.0^16,18]icosa-7,13(20),14,16(19),17-pentaene-3,12-dione] | 2.7 µM | 5.39 µM | – |
| Cc1nc(C)c(-c2ccc3cc(-c4c(C5CCCCC5)c5ccc6cc5n4CC(=O)NCC/C=C\CS(=O)(=O)NC6=O)ccc3n2)s1 [Cpd 18, 17-cyclohexyl-18-[2-(2,4-dimethyl-thiazol-5-yl)-quinolin-6-yl]-10,10-dioxo-10λ^6-thia-1,4,11-triaza-tricyclo[11.5.2.0^16,19]icosa-7,13(20),14,16(19),17-pentaene-3,12-dione] | 0.04 µM | 12.8 µM | – |
| CN1C/C=C\CNC(=O)Cn2c(-c3ccc(OCc4cc(N5CCCC5=O)ccc4N4CCN(S(C)(=O)=O)CC4)cc3F)c(C3CCCCC3)c3ccc(cc32)C(=O)NS1(=O)=O [Cpd 19, 17-cyclohexyl-18-(2-fluoro-4-(2-(4-methanesulfonyl-piperazin-1-yl)-5-(2-oxo-pyrrolidin-1-yl)-benzyloxy)-phenyl)-9-methyl-10,10-dioxo-10λ^6-thia-1,4,9,11-tetraaza-tricyclo[11.5.2.0^16,19]icosa-6,13(20),14,16(19),17-pentaene-3,12-dione] | 0.042 µM | 2.36 µM | – |
| CN1CCCCCNC(=O)Cn2c(-c3ccc(Cl)cc3)c(C3CCCCC3)c3ccc(cc32)C(=O)NS1(=O)=O [Cpd 21, 19-(4-Chloro-phenyl)-18-cyclohexyl-10-methyl-11,11-dioxo-11λ^6-thia-1,4,10,12-tetraaza-tricyclo[12.5.2.017,20]henicosa-14(21),15,17(20),18-tetraene-3,13-dione] | 0.19 µM | 0.59 µM | – |
| CN1C/C=C\CN(C)S(=O)(=O)NC(=O)c2ccc3c(C4CCCCC4)c(-c4ccc(Cl)cc4)n(c3c2)CC1=O [Cpd 23, 18-(4-Chloro-phenyl)-17-cyclohexyl-4,9-dimethyl-10,10-dioxo-10λ^6-thia-1,4,9,11-tetraaza-tricyclo[11.5.2.016,19]icosa-6,13(20),14,16(19),17-pentaene-3,12-dione] | 0.45 µM | 1.08 µM | – |
| CN1CCCCN(C)S(=O)(=O)NC(=O)c2ccc3c(C4CCCCC4)c(-c4ccc(Cl)cc4)n(c3c2)CC1=O [Cpd 24, 18-(4-Chloro-phenyl)-17-cyclohexyl-4,9-dimethyl-10,10-dioxo-10λ^6-thia-1,4,9,11-tetraaza-tricyclo[11.5.2.016,19]icosa-13(20),14,16(19),17-tetraene-3,12-dione] | – | 0.53 µM | ring closure, isolated yield (amide bond, 15-membered ring): 12% |
| COc1ccc(-c2c(C3CCCCC3)c3ccc4cc3n2CC(=O)NCCCCN(C)S(=O)(=O)NC4=O)cc1 [Cpd 25, 17-Cyclohexyl-18-(4-methoxy-phenyl)-9-methyl-10,10-dioxo-10λ^6-thia-1,4,9,11-tetraaza-tricyclo[11.5.2.016,19]icosa-13(20),14,16(19),17-tetraene-3,12-dione] | 0.18 µM | 1.76 µM | – |
| COc1ccc(-c2c(C3CCCCC3)c3ccc4cc3n2CC(=O)NCCCCCN(C)S(=O)(=O)NC4=O)cc1 [Cpd 26, 18-Cyclohexyl-19-(4-methoxy-phenyl)-10-methyl-11,11-dioxo-11λ^6-thia-1,4,10,12-tetraaza-tricyclo[12.5.2.017,20]henicosa-14(21),15,17(20),18-tetraene-3,13-dione] | – | 0.35 µM | ring closure, isolated yield (amide bond, 16-membered ring, CDI, CH3CN, 2 steps): 31% |
| COc1ccc(-c2c(C3CCCCC3)c3ccc4cc3n2CC(=O)NCCN(C)CCNS(=O)(=O)NC4=O)cc1 [Cpd 27, 18-Cyclohexyl-19-(4-methoxy-phenyl)-7-methyl-11,11-dioxo-11λ^6-thia-1,4,7,10,12-pentaaza-tricyclo[12.5.2.017,20]henicosa-14(21),15,17(20),18-tetraene-3,13-dione] | 0.44 µM | 3.47 µM | – |
| CN1CC=CCCNC(=O)Cn2c(-c3ccoc3)c(C3CCCCC3)c3ccc(cc32)C(=O)NS1(=O)=O [Cpd 29, 18-Cyclohexyl-19-furan-3-yl-10-methyl-11,11-dioxo-11λ^6-thia-1,4,10,12-tetraaza-tricyclo[12.5.2.017,20]henicosa-7,14(21),15,17(20),18-pentaene-3,13-dione] | 0.051 µM | 0.65 µM | – |
